Results taken from patent publication EP0308279A1, “Water-soluble polysaccharides, process for obtaining them, their use as medicaments and a preparation containing them” (LIPHA, LYONNAISE INDUSTRIELLE PHARMACEUTIQUE, priority 1987, dated 1989).

System: macrophages alvéolaires de rats Kyoto
Assay: Activation of alveolar macrophages (cytostatic/cytotoxic activity towards tumour target cells, tritiated thymidine incorporation)
Assay type: cell-based, rat
Conditions: mean of 3 measurements
Experimental: Ce test met en évidence le phénomène d'activation des macrophages par une mesure de leur activité cytostatique ou cytotoxique envers des cellules de lignée tumorale.
Le test de mesure de l'activation des macrophages consiste à traiter une culture de macrophages alvéolaires ou péritonéaux de rat ou de souris ou de monocytes humaines par des doses des polysaccharides de l'invention variant entre 0,001 et 50 µg/ml. Il est réalisé de la manière suivante :
10⁵ macrophages de souris de souche Balb c, Swiss, C57/B16 ou DBA/2 ou de rat de souche Kyoto ou Wistar sont placés dans une plaque de microtitration dans du milieu de culture complété ou non par du sérum artificiel et de 1 à 10 µg/ml de polymyxine.
On ajoute les polysaccharides de l'invention ou le tampon correspondant sans polysaccharides comme contrôle négatif. Les cellules sont incubées 24 heures à 37°C. On élimine ensuite le surnageant et lave les cellules avec du milieu de culture.
On ajoute alors les cellules cibles tumorales L1210 ou P815 dans du milieu complet. Le rapport macrophages/cellules cibles est de 10. On incube alors la culture durant 24 heures à 37°C. Puis on ajoute 1 - 2 x 10⁴Bq de thymidine tritiée par puits. Les cellules sont récupérées après 4 heures d'incubation à 37°C sur un filtre en fibre de verre. Après séchage des filtres, la radioactivité est mesurée en présence d'un mélange scintillant.
Les résultats correspondent à une moyenne de 3 mesures. Le pourcentage d'activation est exprimé : [formula] R : radioactivité incorporée par les cellules tumorales cultivées en présence de macrophages de référence. S : radioactivité incorporée par les cellules tumorales cultivées en présence de macrophages stimulés.

Structure (SMILES): CC(=O)N[C@H]1C(O)O[C@H](CO)[C@@H](O)[C@@H]1O[C@H](C)C(=O)N[C@@H](C)C(=O)N[C@H](CCC(=O)O)C(N)=O (mixture of isomers) [Muramyl dipeptide (MDP), Muramyl dipeptide]
- % d'activation des macrophages alvéolaires de rats Kyoto. (dose 0,01 µg/ml): 28%
- % d'activation des macrophages alvéolaires de rats Kyoto. (dose 1 µg/ml): 90%
- % d'activation des macrophages alvéolaires de rats Kyoto. (dose 10 µg/ml): 92%
